Test [1] concerns the target Prothrombin (Homo sapiens, UniProt P00734). As to the kind of experiment: Inhibitory activity against thrombin with respect to Argatroban.
Test [2] has as its target T1, Coagulation factor X (Homo sapiens, UniProt P00742). As to the kind of experiment: Inhibitory activity against Coagulation factor X with respect to Argatroban.
In test [3] the target is T1, Coagulation factor X. As to the kind of experiment: Inhibitory activity against Coagulation factor X.

One may read the IC50 as the concentration that inhibits the measured activity by half. A higher IC50 goes with weaker potency in that assay.

T1 sequence (P00742 41-179 limits assumed): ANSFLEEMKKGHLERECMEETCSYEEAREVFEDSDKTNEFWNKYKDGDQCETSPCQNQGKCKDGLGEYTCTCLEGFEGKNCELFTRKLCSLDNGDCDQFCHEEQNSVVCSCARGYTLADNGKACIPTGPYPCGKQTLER
T1 sequence (P00742 235-488 limits assumed): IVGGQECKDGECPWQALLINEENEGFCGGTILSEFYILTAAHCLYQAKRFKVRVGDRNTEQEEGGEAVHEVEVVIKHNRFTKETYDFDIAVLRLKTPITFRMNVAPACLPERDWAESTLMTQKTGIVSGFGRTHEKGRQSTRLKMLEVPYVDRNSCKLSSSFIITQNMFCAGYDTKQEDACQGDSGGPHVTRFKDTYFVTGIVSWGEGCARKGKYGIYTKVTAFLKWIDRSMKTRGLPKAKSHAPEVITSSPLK

For `O=C(Cn1cccc(NS(=O)(=O)Cc2ccccc2)c1=O)N[C@@H](CC1CCNCC1)C(=O)C(=O)NCc1ccccc1`, the IC50 in test [1] came out at 0.59 µM; in test [2], 3.6 µM.
Regarding `CN(CC(=O)NC(CC1CCNCC1)C(=O)c1nccs1)C(=O)[C@@H](CC1CCCCC1)NCC(=O)O` (stereo partly specified), the IC50 in test [1] is 4.8 µM; in test [2], 0.43 µM.
On to `CCS(=O)(=O)N[C@H](CC1CCCCC1)C(=O)N1CCC[C@H]1C(=O)NC(CC1CCNCC1)C(=O)c1nccs1` (stereo partly specified), for which the results for the IC50 in test [1] and in test [2] were 0.16 µM and 4.1 µM, respectively.
The matching figures for `O=C(NCc1ccccc1)C(=O)[C@H](CC1CCNCC1)NC(=O)[C@H]1CCCN1C(=O)[C@@H]1NCC[C@H]2CCCC[C@H]21`: 0.048 µM and 2.9 µM.
Take `CCS(=O)(=O)N[C@H](CC1CCCCC1)C(=O)N1CCC[C@H]1C(=O)NC(CC1CCNCC1)C(=O)C(=O)O` (stereo partly specified): the IC50 in test [1] was 0.22 µM; in test [2], 16 µM.
In the case of `O=C(O)CN[C@H](CC1CCCCC1)C(=O)NCC(=O)NC(CC1CCNCC1)C(=O)c1nccs1` (stereo partly specified), the IC50 in test [1] came to 19.4 µM; in test [2], 1.1 µM.
With `CCS(=O)(=O)N[C@H](CC1CCCCC1)C(=O)N1CCC[C@H]1C(=O)N[C@@H](CC1CCNCC1)C(=O)c1nccs1`, the 50% inhibitory concentration (IC50) in test [1] was 0.12 µM; in test [2], 2.5 µM.
The matching figures for `O=C(CN1CCCCC(NS(=O)(=O)Cc2ccccc2)C1=O)N[C@@H](CC1CCNCC1)C(=O)C(=O)NCc1ccccc1` (stereo partly specified): 1.4 µM and 5.2 µM.
Regarding `O=C(NCc1ccccc1)C(=O)[C@H](CC1CCNCC1)NC(=O)[C@H]1CCCN1C(=O)CC(c1ccccc1)c1ccccc1`, the figures for the IC50 in test [1] and in test [2] were 0.26 µM and 54 µM, respectively.
Turning to `O=C(O)CN[C@H](CC1CCCCC1)C(=O)N[C@@H](Cc1ccccc1)C(=O)NC(CC1CCNCC1)C(=O)c1nccs1` (stereo partly specified), the half-inhibitory concentration (IC50) was found to be 3.1 µM in test [1] and 7.8 µM in test [2].
Turning to `CC1CNc2c(cccc2S(=O)(=O)N[C@@H](CCCNC(=N)N)C(=O)N2CCC(C)C[C@@H]2C(=O)O)C1` (single isomer, unassigned) [ARGATROBAN], half-maximal inhibition in test [3] (IC50) required 134 µM.

These data come from ChEMBL document CHEMBL1131688, “Solution-phase and solid-phase synthesis of novel transition state inhibitors of coagulation enzymes incorporating a piperidinyl moiety” (Bioorg Med Chem Lett, 1999).
